Test results taken from patent US20200172483A1, “HETEROCYCLIC SMALL MOLECULE MODULATORS OF HUMAN STING” (Curadev Pharma Limited, priority 2017, published 2020).

Tests used:
hSTING (HAQ) = molecular target: T1, hSTING (HAQ) (Homo sapiens, UniProt Q86WV6, G230A/H232R/R293Q/R71H); test: Luciferase reporter assay in HEK293T-hSTING-Luciferase cells (HAQ polymorph); type: cell-based; conditions: EC50 range
T1 construct: host or cells: HEK293T
Method in brief: (§1)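 Clonal HEK293T lines stably expressing the hSTING variant (H232 or HAQ) plus an ISRE/ISG54-driven secreted luciferase reporter were stimulated with compounds for 20 hr. Supernatant luciferase measured by luminescence (Quanti-Luc).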

NF-κB pathway = test: Reporter gene expression assay for NFκB axis in THP1-Dual cells (secreted SEAP); type: cell-based, human; conditions: Homo sapiens, THP1-Dual, 20 h, 20 hr stimulation, QUANTI-Blue SEAP, EC50 range, read-out: THP-NFKB activity
Method in brief: (§2)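 THP1-Dual cells (THP-1 monocytes with inducible NF-κB-SEAP and IRF-Lucia reporters; 5×10^5 cells) were stimulated with compounds for 20 hr. Secreted SEAP (QUANTI-Blue) and Lucia luciferase (QUANTI-Luc) were then measured in the supernatant. EC50 values are reported as ranges.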

hSTING (H232) = molecular target: T2, hSTING (H232) (Homo sapiens, UniProt Q86WV6); test: Luciferase reporter assay in HEK293T-hSTING-Luciferase cells (H232/REF polymorph); type: cell-based; conditions: EC50 range
T2 construct: host or cells: HEK293T
T2 sequence (Q86WV6 whole entry): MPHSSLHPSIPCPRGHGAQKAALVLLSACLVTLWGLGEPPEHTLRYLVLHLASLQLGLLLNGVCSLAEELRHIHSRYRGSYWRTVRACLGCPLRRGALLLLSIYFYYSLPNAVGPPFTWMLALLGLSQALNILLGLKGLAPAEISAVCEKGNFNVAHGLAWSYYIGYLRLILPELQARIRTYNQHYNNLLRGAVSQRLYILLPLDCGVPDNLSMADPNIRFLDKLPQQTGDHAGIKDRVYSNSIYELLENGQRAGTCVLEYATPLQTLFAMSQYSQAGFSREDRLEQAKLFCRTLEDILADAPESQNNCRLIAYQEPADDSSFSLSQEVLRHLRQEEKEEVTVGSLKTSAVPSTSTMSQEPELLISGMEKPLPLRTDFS
Method in brief: as §1

WT/R232 STING protein = molecular target: T3, WT/R232 STING protein (Homo sapiens, UniProt Q86WV6, H232R); test: Luciferase reporter assay in HEK293T-hSTING-Luciferase cells (R232); type: cell-based; conditions: 20 hr stimulation, EC50 range
T3 construct: host or cells: HEK293T
T3 sequence (Q86WV6 whole entry H232R): as the sequence (Q86WV6 whole entry) above, with H232R counted along it
Method in brief: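 Readout is fold-induction over baseline of secreted luciferase, measured by luminescence after 20 hr compound stimulation. Cells: clonally selected HEK293T stably carrying hSTING (R232) and a luciferase reporter under five tandem ISREs fused to an ISG54 minimal promoter.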

IRF pathway = test: Reporter gene expression assay for IRF axis in THP1-Dual cells (secreted Lucia luciferase); type: cell-based, human; conditions: Homo sapiens, THP1-Dual, 20 h, 20 hr stimulation, QUANTI-Luc, EC50 range, read-out: THP-IRF activity
Method in brief: as §2

T1 sequence (Q86WV6 whole entry R71H/G230A/H232R/R293Q): as the sequence (Q86WV6 whole entry) above, with R71H, G230A, H232R, R293Q counted along it

| Compound | EC50 (hSTING (HAQ)) [µM] | EC50 (NF-κB pathway) [µM] | EC50 (hSTING (H232)) [µM] | EC50 (WT/R232 STING protein) [µM] | EC50 (IRF pathway) [µM] |
| --- | --- | --- | --- | --- | --- |
| CC1(C)C(=O)N(Cc2noc3ccccc23)c2cc(C(=O)NCc3c(F)cc(F)cc3F)ccc21 [Example 98, 1-(benzo[d]isoxazol-3-ylmethyl)-3,3-dimethyl-2-oxo-N-(2,4,6-trifluorobenzyl)indoline-6-carboxamide] | 1 to 10 | > 10 | ≤ 1 | ≤ 1 | > 10 |
| CC1(C)C(=O)N(Cc2coc3ccccc23)c2cc(C(=O)NCc3c(F)cc(F)cc3F)ccc21 [Example 100, 1-(benzofuran-3-ylmethyl)-3,3-dimethyl-2-oxo-N-(2,4,6-trifluorobenzyl)indoline-6-carboxamide] | 1 to 10 | > 10 | 1 to 10 | 1 to 10 | > 10 |
| CC(C)C1(Cl)C(=O)N(Cc2c(F)cccc2Cl)c2cc(C(=O)NCc3c(F)cc(F)cc3F)ccc21 (stereo not drawn) [Example 157, 3-chloro-1-(2-chloro-6-fluorobenzyl)-3-isopropyl-2-oxo-N-(2,4,6-trifluorobenzyl)indoline-6-carboxamide] | 1 to 10 | > 10 | 1 to 10 | ≤ 1 | > 10 |
| CC1(C)C(=O)N(Cc2cc(F)cc(F)c2)c2cc(C(=O)NCc3ccc(N=[N+]=[N-])cc3)ccc21 [Example 48, N-(4-azidobenzyl)-1-(3,5-difluorobenzyl)-3,3-dimethyl-2-oxoindoline-6-carboxamide] | 1 to 10 | > 10 | 1 to 10 | 1 to 10 | > 10 |
| CC1(C)C(=O)N(Cc2c(F)cccc2Cl)c2cc(C(=O)NCc3cc4ccccc4o3)ccc21 [Example 36, N-(benzofuran-2-ylmethyl)-1-(2-chloro-6-fluorobenzyl)-3,3-dimethyl-2-oxoindoline-6-carboxamide] | 1 to 10 | 1 to 10 | 1 to 10 | ≤ 1 | 1 to 10 |
| COc1cccc(CN2C(=O)C(C)(C)c3ccc(C(=O)NCc4c(F)cc(F)cc4F)cc32)c1F [Example 104, 1-(2-fluoro-3-methoxybenzyl)-3,3-dimethyl-2-oxo-N-(2,4,6-trifluorobenzyl)indoline-6-carboxamide] | 1 to 10 | > 10 | 1 to 10 | 1 to 10 | > 10 |
| Cc1cccc(F)c1CN1C(=O)C(C)(C)c2ccc(C(=O)NCc3c(F)cc(F)cc3F)cc21 [Example 103, 1-(2-fluoro-6-methylbenzyl)-3,3-dimethyl-2-oxo-N-(2,4,6-trifluorobenzyl)indoline-6-carboxamide] | ≤ 1 | 1 to 10 | ≤ 1 | ≤ 1 | 1 to 10 |
| CC1(C)C(=O)N(Cc2c(F)cccc2Br)c2cc(C(=O)NCc3c(F)cc(F)cc3F)ccc21 [Example 108, 1-(2-bromo-6-fluorobenzyl)-3,3-dimethyl-2-oxo-N-(2,4,6-trifluorobenzyl)indoline-6-carboxamide] | > 10 | > 10 | > 10 | ≤ 1 | > 10 |
| Cc1cccc(CNC(=O)c2ccc3c(c2)N(Cc2cc(F)cc(F)c2)C(=O)C3(C)C)c1 [Example 4, 1-(3,5-difluorobenzyl)-3,3-dimethyl-N-(3-methylbenzyl)-2-oxoindoline-6-carboxamide] | 1 to 10 | > 10 | 1 to 10 | 1 to 10 | > 10 |
